Data from ChEMBL document CHEMBL1137244, “Ureas with histamine H3-antagonist receptor activity--a new scaffold discovered by lead-hopping from cinnamic acid amides” (Bioorg Med Chem Lett, 2006).

Legend:
Histamine H3 receptor = Histamine H3 receptor (Homo sapiens, UniProt Q9Y5N1); assay: Binding affinity at histamine H3 receptor by hH3-[35S]GTPgamma[S] binding assay; assay type: functional
hERG (KCNH2) = hERG (KCNH2) (Homo sapiens, UniProt Q12809); assay: in vitro
Cytochrome P450 3A4 = Cytochrome P450 3A4 (Homo sapiens, UniProt P08684)
Chain of Cytochrome P450 3A4 (P08684 whole entry): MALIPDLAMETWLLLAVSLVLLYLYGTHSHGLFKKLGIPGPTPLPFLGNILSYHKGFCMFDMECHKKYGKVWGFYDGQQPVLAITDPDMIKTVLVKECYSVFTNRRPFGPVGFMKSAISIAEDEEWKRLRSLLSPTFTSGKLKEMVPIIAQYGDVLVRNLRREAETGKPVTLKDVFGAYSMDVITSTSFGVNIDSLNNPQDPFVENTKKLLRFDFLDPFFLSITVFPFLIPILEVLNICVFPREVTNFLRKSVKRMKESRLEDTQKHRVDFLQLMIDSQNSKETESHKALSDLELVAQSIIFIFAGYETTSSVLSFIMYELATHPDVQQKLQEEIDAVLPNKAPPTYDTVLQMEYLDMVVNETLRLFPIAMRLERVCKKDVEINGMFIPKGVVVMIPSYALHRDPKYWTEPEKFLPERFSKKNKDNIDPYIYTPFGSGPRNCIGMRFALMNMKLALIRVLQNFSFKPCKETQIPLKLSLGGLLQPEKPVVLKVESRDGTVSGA

Cytochrome P450 2D6 = Cytochrome P450 2D6 (Homo sapiens, UniProt P10635)
Chain of Cytochrome P450 2D6 (P10635 whole entry): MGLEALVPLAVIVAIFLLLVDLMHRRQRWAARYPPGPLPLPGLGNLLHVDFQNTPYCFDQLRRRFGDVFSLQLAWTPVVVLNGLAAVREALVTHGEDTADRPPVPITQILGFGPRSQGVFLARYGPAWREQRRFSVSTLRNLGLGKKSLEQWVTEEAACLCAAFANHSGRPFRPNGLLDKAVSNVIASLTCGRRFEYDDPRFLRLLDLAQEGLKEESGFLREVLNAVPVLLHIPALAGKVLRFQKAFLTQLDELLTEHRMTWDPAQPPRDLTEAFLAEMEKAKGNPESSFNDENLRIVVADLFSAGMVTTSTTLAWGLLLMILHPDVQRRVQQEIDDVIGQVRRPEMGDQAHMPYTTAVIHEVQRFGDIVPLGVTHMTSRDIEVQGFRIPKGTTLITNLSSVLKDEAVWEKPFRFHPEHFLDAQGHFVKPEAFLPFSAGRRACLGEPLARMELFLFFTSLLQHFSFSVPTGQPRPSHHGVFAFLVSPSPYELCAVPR

Cytochrome P450 1A2 = biological target: T1, Cytochrome P450 1A2 (Homo sapiens, UniProt P05177)
T1 sequence (P05177 whole entry): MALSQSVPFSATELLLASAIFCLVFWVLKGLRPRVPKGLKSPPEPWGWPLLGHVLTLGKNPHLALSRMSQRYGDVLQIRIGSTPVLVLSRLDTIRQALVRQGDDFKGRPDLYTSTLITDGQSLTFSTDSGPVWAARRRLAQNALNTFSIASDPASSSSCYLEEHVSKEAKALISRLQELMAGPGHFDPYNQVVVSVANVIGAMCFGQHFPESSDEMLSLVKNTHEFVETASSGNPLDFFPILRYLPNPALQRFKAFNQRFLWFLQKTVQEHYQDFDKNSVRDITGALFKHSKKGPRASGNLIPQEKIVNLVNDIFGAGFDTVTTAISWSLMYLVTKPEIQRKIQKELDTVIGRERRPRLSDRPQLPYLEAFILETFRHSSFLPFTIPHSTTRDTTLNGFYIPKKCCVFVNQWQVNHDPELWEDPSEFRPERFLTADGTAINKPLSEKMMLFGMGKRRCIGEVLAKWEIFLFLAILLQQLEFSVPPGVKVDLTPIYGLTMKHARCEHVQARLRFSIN

[1] = HEK293 cells that express hERG, probe [3H]astemizole

Chain of hERG (KCNH2) (Q12809 whole entry): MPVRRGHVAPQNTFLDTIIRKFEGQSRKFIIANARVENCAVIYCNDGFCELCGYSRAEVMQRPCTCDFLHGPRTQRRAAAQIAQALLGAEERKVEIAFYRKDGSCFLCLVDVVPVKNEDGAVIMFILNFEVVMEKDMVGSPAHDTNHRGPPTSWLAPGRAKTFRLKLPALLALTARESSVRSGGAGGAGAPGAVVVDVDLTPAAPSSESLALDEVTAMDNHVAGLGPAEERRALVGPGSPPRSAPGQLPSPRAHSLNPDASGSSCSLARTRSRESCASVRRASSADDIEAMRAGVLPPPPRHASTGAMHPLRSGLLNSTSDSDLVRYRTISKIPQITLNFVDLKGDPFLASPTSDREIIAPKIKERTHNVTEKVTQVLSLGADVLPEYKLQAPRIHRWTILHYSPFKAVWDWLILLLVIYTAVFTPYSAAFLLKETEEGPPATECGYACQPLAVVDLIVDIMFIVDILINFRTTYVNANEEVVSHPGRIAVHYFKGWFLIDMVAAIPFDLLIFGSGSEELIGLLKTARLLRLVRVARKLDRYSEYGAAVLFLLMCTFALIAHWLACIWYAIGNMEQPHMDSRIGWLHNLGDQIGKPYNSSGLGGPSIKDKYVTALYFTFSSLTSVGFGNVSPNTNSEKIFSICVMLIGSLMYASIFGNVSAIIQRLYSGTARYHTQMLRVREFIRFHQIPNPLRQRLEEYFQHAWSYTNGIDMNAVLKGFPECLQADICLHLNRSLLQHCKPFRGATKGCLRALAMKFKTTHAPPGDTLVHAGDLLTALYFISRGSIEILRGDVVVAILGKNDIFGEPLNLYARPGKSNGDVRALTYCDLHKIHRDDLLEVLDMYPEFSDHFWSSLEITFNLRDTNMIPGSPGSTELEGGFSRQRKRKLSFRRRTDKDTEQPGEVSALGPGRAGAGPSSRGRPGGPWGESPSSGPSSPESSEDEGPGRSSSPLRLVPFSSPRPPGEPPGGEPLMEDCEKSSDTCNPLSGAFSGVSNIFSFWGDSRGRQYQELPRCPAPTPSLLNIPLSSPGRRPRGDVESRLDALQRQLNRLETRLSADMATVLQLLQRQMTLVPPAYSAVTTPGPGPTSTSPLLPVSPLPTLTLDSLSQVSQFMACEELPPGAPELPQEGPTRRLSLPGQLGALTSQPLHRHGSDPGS
Chain of Histamine H3 receptor (Q9Y5N1 whole entry): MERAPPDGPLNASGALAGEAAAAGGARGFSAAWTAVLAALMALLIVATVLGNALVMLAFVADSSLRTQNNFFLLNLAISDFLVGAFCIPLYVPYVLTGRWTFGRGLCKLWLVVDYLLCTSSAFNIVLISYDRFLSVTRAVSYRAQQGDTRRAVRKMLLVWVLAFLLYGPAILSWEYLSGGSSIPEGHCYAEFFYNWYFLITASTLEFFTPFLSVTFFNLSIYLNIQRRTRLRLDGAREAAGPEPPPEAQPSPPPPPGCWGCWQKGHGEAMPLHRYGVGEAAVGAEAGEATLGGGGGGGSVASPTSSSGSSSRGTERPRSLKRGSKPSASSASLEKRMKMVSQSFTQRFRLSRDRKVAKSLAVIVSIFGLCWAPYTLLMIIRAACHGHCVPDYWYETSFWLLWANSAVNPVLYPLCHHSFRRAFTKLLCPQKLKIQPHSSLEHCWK

| Ki (Histamine H3 receptor) | Compound | further results |
| --- | --- | --- |
| 52 nM (antagonist) | O=C(NC1Cc2ccccc2C1)N1CCC[C@H]1CN1CCCC1 | – |
| – | CN(Cc1ccc(-c2ccccc2)cc1)C(=O)N1CCC[C@H]1CN1CCCC1 | inhibition at 10 µM (hERG (KCNH2); [1]): 66% |
| 121 nM (antagonist) | O=C(NCc1ccc(OC(F)(F)F)cc1)N1CCC[C@H]1CN1CCCC1 | – |
| 458 nM (antagonist) | O=C(NCC1CCCCC1)N1CCC[C@H]1CN1CCCC1 | – |
| 47 nM (antagonist) | O=C(NCc1ccc(Cl)c(Cl)c1)N1CCC[C@H]1CN1CCCC1 | – |
| – | CC(C)N1CCN(C(=O)N2CCC(C(=O)OC(C)(C)C)CC2)CC1 | IC50 (Cytochrome P450 3A4): > 25000 nM; inhibition at 10 µM (hERG (KCNH2); [1]): 9%; IC50 (Cytochrome P450 2D6): > 25000 nM; IC50 (Cytochrome P450 1A2): > 25000 nM |
| 295 nM (antagonist) | COc1ccc(CNC(=O)N2CCC[C@H]2CN2CCCC2)cc1 | – |
| 40 nM (antagonist) | CCN1CCN(C(=O)N[C@@H]2C[C@H]2c2ccccc2)CC1 | – |
| – | CC(C)N1CCN(C(=O)N2CCC(C(=O)N3CC4CCC(CC4)C3)CC2)CC1 | IC50 (Cytochrome P450 3A4): > 25000 nM; inhibition at 10 µM (hERG (KCNH2); hek293): 8%; IC50 (Cytochrome P450 2D6): > 25000 nM; IC50 (Cytochrome P450 1A2): > 25000 nM |
| 38 nM (antagonist) | O=C(NCc1ccc(Oc2ccccc2)cc1)N1CCN(C2CCCC2)CC1 | – |
| 87 nM (antagonist) | O=C(NCc1ccc(-c2ccccc2)cc1)N1CCC[C@H]1CN1CCCC1 | – |
| 13.4 nM (antagonist) | O=C(/C=C/c1ccc(OC(F)(F)F)cc1)N1CCC[C@H]1CN1CCCC1 | – |
| 117 nM (antagonist) | O=C(NCc1cccc(C(F)(F)F)c1)N1CCC[C@H]1CN1CCCC1 | – |
| 15 nM (antagonist) | O=C(NCc1ccc(Cl)c(Cl)c1)N1CCN(C2CCCC2)CC1 | – |
| 11.2 nM (antagonist) | O=C(/C=C/c1ccc(Cl)cc1)N1CCC[C@H]1CN1CCCC1 | – |
| – | COc1cc2c(cc1OC)CN(C(=O)N1CCN(C(C)C)CC1)CC2 | inhibition at 10 µM (hERG (KCNH2); [1]): 8% |
| 188 nM (antagonist) | COc1cccc(CNC(=O)N2CCC[C@H]2CN2CCCC2)c1 | – |
| 37 nM (antagonist) | CC(C)N1CCN(C(=O)N(C)Cc2ccc(-c3ccccc3)cc2)CC1 | inhibition at 10 µM (hERG (KCNH2); [1]): 55% |
| – | CC(C)N1CCN(C(=O)N2CCC(Cc3ccccc3)CC2)CC1 | inhibition at 10 µM (hERG (KCNH2); hek293): 21% |

| Ki (Histamine H3 receptor) | Compound | further results |
| --- | --- | --- |
| 30 nM (antagonist) | CC(C)N1CCN(C(=O)NC2Cc3ccccc3C2)CC1 | – |
| 3.7 nM (antagonist) | O=C(/C=C/c1ccc(-c2ccccc2)cc1)N1CCC[C@H]1CN1CCCC1 | – |
| 94 nM (antagonist) | O=C(NCc1ccccc1)N1CCN(C2CCCC2)CC1 | – |
| – | CC(C)N1CCN(C(=O)N2CCC(NC(=O)C3CCCC3)CC2)CC1 | IC50 (Cytochrome P450 3A4): > 25000 nM; inhibition at 10 µM (hERG (KCNH2); hek293): 6%; IC50 (Cytochrome P450 2D6): 17000 nM; IC50 (Cytochrome P450 1A2): > 25000 nM |
| 44 nM (antagonist) | CCN1CCN(C(=O)NC2Cc3ccccc3C2)CC1 | – |
| – | O=C(N1CCN(C2CC2)CC1)N1Cc2ccccc2C1 | inhibition at 10 µM (hERG (KCNH2); [1]): 16% |
| 20 nM (antagonist) | CC(C)N1CCN(C(=O)NCc2ccc(Cl)c(Cl)c2)CC1 | – |
| – | CC(C)N1CCN(C(=O)N2CC=C(c3ccccc3)CC2)CC1 | inhibition at 10 µM (hERG (KCNH2); hek293): 31% |
| 78 nM (antagonist) | NCc1cccc(CNC(=O)N2CCC[C@H]2CN2CCCC2)c1 | – |
| 109 nM (antagonist) | NCc1ccc(CNC(=O)N2CCC[C@H]2CN2CCCC2)cc1 | – |
| 29 nM (antagonist) | O=C(NC1Cc2ccccc2C1)N1CCN(C2CCCC2)CC1 | – |
| – | O=C(N1Cc2ccccc2C1)N1CCC[C@H]1CN1CCCC1 | inhibition at 10 µM (hERG (KCNH2); [1]): 26% |
| 196 nM (antagonist) | O=C(NCc1ccccc1)N1CCC[C@H]1CN1CCCC1 | – |
| 34 nM (antagonist) | O=C(NCc1ccc(Oc2ccccc2)cc1)N1CCC[C@H]1CN1CCCC1 | – |
| 226 nM (antagonist) | O=C(NCCc1ccccc1)N1CCC[C@H]1CN1CCCC1 | – |
| 165 nM (antagonist) | O=C(NCc1ccc(Cl)cc1)N1CCC[C@H]1CN1CCCC1 | – |
| – | O=C(N1CCN(C2CCCC2)CC1)N1Cc2ccccc2C1 | inhibition at 10 µM (hERG (KCNH2); [1]): 45% |
| 34 nM (antagonist) | CC(C)N1CCN(C(=O)NCc2ccc(Oc3ccccc3)cc2)CC1 | – |
